A short description of the data set: Dynamic moisture sorption (DMS) analysis. It counts as physicochemical. The conditions noted are these: for XRPD pattern of solid after two consecutive sorption-desorption cycles: 5-90% RH, 25° C.; for total moisture gain: exposed to 5-90% relative humidity, about 25° C.; for hygroscopicity: from DMS data. The protocol:
Dynamic moisture sorption (DMS) analysis was performed on weighed samples of the crystalline forms of the compound of Formula I using a VTI atmospheric microbalance, SGA-100 system (VTI Corp., Hialeah, Fla. 33016). Following an initial drying step (approximately 0% RH) of 2 hours, two cycles of sorption and desorption were completed isothermally at 25° C. at a scan rate of 5% RH/step over a humidity range of 5 to 90% RH. Representative DMS traces of polymorph Form I and polymorph Form II of a fumarate salt of the compound of Formula I and polymorph Form III of the compound of Formula I (freebase) are shown in FIG. 4, FIG. 8 and FIG. 12, respectively.

Consider `C[C@@H]1CN(CCNc2cnc3ccc(-c4nc[nH]c4-c4cc(Cl)ccc4F)nc3c2)C[C@H](C)N1.O=C(O)/C=C/C(=O)O` [polymorph Form I, 6-(5-(5-chloro-2-fluorophenyl)-1H-imidazol-4-yl)-N-(2-((3S,5R)-3,5-dimethylpiperazin-1-yl)ethyl)-1,5-naphthyridin-3-amine, fumaric Acid], for which the “XRPD pattern of solid after two consecutive sorption-desorption cycles” value is listed as “no change in form”, the total moisture gain entry is given as “about 1.30 % by weight” and the hygroscopicity entry is “slightly-hygroscopic”.
The matching figures for `C[C@@H]1CN(CCNc2cnc3ccc(-c4nc[nH]c4-c4cc(Cl)ccc4F)nc3c2)C[C@H](C)N1` [polymorph Form III, 6-(5-(5-chloro-2-fluorophenyl)-1H-imidazol-4-yl)-N-(2-((3S,5R)-3,5-dimethylpiperazin-1-yl)ethyl)-1,5-naphthyridin-3-amine]: “no change in form”, “about 0.6 % by weight” and “slightly-hygroscopic”.
On to `C[C@@H]1CN(CCNc2cnc3ccc(-c4nc[nH]c4-c4cc(Cl)ccc4F)nc3c2)C[C@H](C)N1.O=C(O)/C=C/C(=O)O` [polymorph Form II, 6-(5-(5-chloro-2-fluorophenyl)-1H-imidazol-4-yl)-N-(2-((3S,5R)-3,5-dimethylpiperazin-1-yl)ethyl)-1,5-naphthyridin-3-amine, fumaric Acid], for which the “XRPD pattern of solid after two consecutive sorption-desorption cycles” value was “no change in form”, the total moisture gain entry was “about 0.85 % by weight” and the hygroscopicity entry is given as “slightly-hygroscopic”.
